# Tests used:
# [1] = Plasma stability, mouse plasma; assay type: in vitro ADME; details: 50 μM, 37° C., over 6 hours (FIG. 12)
# Description: (§1) A 5 μL aliquot of compound solution (10 mM in DMSO) was added to 995 μL of Non Swiss Albino Mouse Plasma (DivBioScience, Breda, Netherlands) or Pooled Normal Human plasma in sodium citrate to obtain a final concentration of 50 μM compound in plasma. The mixture was gently shaken for 6 hours at 37° C. Aliquots of 100 μL were taken at various time points (0, 0.5, 1, 2 and 6 hrs.) and diluted with 400 μL of cold acetonitrile (Sigma-Aldrich, stored at 4° C.). The suspension was centrifuged at 14000 rpm for 5 min. Thereafter, 50 μL of the supernatant was diluted with 950 μL of acetonitrile and analyzed with LC-MS/MS (Waters Acquity H-class UPLC system with ion trap mass spectrometer, Bruker Daltonics Esquire 3000 plus, and Agilent 1100 Series LC system). Samples were analyzed in triplicate and plotted against a standard curve (compound at 3.12-100 μM in plasma and diluted in acetonitrile as described above).
# [2] = molecular target: T1, ERBB4 (Homo sapiens, UniProt Q15303); assay: PathHunter ERBB4/ERBB4 dimerization assay, compounds on top of 0.1 μM NRG-1 (identification of modulators); assay type: cell-based; details: for EC50: on top of 0.1 μM NRG1; for Emax: on top of 0.1 μM NRG1, relative to NRG1 (set as 100%); for behaviour from the shape of the dose-response curves: on top of 0.1 μM neuregulin-1 (FIG. 1)
# T1 construct: host or cells: U2OS
# T1 sequence (Q15303 26-1308): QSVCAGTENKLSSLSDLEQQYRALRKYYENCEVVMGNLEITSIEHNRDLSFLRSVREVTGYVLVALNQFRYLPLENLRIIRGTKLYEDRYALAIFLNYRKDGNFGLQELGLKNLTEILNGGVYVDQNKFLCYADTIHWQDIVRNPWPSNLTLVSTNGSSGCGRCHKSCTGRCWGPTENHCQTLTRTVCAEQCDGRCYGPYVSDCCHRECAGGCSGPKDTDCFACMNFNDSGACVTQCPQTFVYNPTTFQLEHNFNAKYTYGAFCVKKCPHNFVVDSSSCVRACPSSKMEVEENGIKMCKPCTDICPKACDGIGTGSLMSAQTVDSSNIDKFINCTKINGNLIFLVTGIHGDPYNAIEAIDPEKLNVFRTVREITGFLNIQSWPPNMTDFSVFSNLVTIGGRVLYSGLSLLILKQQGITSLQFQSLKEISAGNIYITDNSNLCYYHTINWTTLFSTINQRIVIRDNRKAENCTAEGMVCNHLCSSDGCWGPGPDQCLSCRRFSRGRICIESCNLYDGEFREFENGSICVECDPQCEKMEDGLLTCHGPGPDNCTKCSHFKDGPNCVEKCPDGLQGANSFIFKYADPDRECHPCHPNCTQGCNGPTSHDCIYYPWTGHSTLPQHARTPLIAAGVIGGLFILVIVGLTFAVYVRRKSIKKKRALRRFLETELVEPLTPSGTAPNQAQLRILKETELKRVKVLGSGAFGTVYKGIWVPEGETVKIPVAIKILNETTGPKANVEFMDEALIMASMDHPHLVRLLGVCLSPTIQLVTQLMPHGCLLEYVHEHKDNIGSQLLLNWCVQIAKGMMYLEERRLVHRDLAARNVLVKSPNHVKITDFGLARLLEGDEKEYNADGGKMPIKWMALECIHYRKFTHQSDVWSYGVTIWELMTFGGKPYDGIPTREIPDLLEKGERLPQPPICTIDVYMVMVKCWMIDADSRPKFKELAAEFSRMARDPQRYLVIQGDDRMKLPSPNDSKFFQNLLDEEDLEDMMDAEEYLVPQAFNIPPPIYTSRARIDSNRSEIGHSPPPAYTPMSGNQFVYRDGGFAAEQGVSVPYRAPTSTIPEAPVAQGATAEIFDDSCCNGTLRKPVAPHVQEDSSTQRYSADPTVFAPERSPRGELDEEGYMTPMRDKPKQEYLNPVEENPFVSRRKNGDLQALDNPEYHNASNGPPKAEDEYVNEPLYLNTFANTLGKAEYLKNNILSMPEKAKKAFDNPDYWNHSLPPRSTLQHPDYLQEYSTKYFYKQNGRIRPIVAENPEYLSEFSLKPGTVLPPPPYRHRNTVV
# Description: (§2) Following 1-12 passages, U2OS ERBB4/ERBB4 dimerization cell line (Eurofins, 93-0961C3) were seeded at 10,000 cells/well in 100 μL cell plating reagent (Eurofins, 93-0563R0A) in white walled 96-well plates (PerkinElmer, 6005680) and incubated for 24h at 37° C. in humidified atmosphere of 5% CO2 in air. Cells were treated with 10 μL of compound (prepared at 11×, Enamine), 10 μM Heregulin-β1 (NRG-1) (DiscoverX, 92-1031 or Peprotech, 100-03) or PBS. […] Cells were subsequently incubated for 6 hours at 37° C., 5% CO2. Then 110 μL PathHunter Flash Detection Reagents (93-0247) were added to each well and cells were incubated at room temperature for 1 hour (covered from light). Afterwards luminescence signal was measured using the Luminoskan Ascent (Thermofisher). Dose response curves of the compounds were performed in 2-fold (0,0625 μM-32 μM).
# Cells were treated with compound (prepared at 22×, 10 min pre-incubation) together with NRG-1 (0.1 μM final concentration, Peprotech, 100-03), or NRG-1 (0.1 μM final concentration) or PBS.
# The EC50 and the Emax of the compounds on top of 0.1 μM NRG1 is depicted in Table 3 relative to NRG1 (set as 100%).
# [3] = Metabolic stability, mouse liver microsomes; assay type: in vitro ADME; details: for t1/2 mouse: mouse liver microsomes; for half-life at 10 µM: mouse, liver microsomes, pH 7.4, mouse liver microsomes, read-out: t1/2 mouse
# Description: A mixture of 713 μL milliQ water (Millipore, MA, USA), 200 μL 0.5 M phosphate buffer (pH 7.4, BD Diagnostic Systems, MD, USA), 50 μL NADPH regenerating system solution A (BD Biosciences, CA, USA), 10 μL NADPH regenerating system solution B (BD Biosciences, CA, USA) and 2 μL compound (5 mM in DMSO) was prepared and heated for 5 min at 37° C. Twenty-five μL of liver microsomes (0.5 mg protein/mL, Corning B.V. Life Sciences, Amsterdam, Netherlands) was added to the mixture and 20 μL samples were withdrawn at 0, 0.25, 0.5 and 1, 2, 4, 6 and 24 hours. Eighty μL (4×20 μL) of cold acetonitrile (Sigma-Aldrich, MO, USA) was added to the samples on ice for 10 min. Afterwards, the mixtures were centrifuged at 13,000 rpm for 5 min at 4° C. Seventy-five μL of an acetonitrile/water (10/90) mixture was added to 25 μL supernatant and the obtained samples were analyzed by LC-MS/MS (Waters Acquity H-class UPLC system with ion trap mass spectrometer, Bruker Daltonics Esquire 3000 plus, and Agilent 1100 Series LC system) in triplicate.
# [4] = Plasma stability, human plasma; assay type: in vitro ADME; details: 50 μM, 37° C., over 6 hours (FIG. 12)
# Description: as §1
# [5] = molecular target: T1, ERBB4; assay: PathHunter ERBB4/ERBB4 dimerization assay, dose-response curves; assay type: cell-based; details: U2OS ERBB4/ERBB4 dimerization cell line, 6 hours, compound alone; for Emax: NRG-1 = 100
# Description: as §2
# From these curves, the EC50 and the Emax of the compounds was calculated.
# [6] = Solubility in PBS (absorbance); assay type: physicochemical; details: aqueous buffer, kinetic from dmso stock, 37° C., 2 hours (FIG. 10), read-out: solubility: concentration at which easily soluble
# Description: A dilution series (0.16, 0.31, 0.62, 1.25, 2.5 and 5 mM) was made starting with a compound stock solution of 10 mM in DMSO. Aliquot of 4 μL was taken out of every dilution and added to 196 μL PBS in a 96-well plate. The plate was shaken for 10 seconds, incubated at 37° C. for 2 hours and thereafter absorbance was measured. Samples were analyzed in duplicate.
# [7] = Chemical stability; assay type: physicochemical; details: 37° C. and pH 7.4 for 24 hours (FIG. 11)
# Description: A 10 μL aliquot of compound solution (10 mM in DMSO) was added to 990 μL DMSO (100 μM) and further diluted with […] to a stock solution of 500 nM. The mixture was incubated at 37° C. Aliquots of 100 μL were taken at various time points (0, 0.5, 1, 2, 3, 6 and 24 hrs) and analyzed with LC-MS/MS (Waters Acquity H-class UPLC system with ion trap mass spectrometer, Bruker Daltonics Esquire 3000 plus, and Agilent 1100 Series LC system). Samples were analyzed in triplicate and plotted against a standard curve; compound at 31-500 nM in buffer solution of pH 7.4 (10 mM Potassium Phosphate, BD Gentest).
SMILES,"plasma stability, mouse plasma [1]",EC50 [2],Emax [2],behaviour from the shape of the dose-response curves [2],t1/2 mouse [3],half-life at 10 µM [3],"plasma stability, human plasma [4]",EC50 [5],Emax [5],solubility at 2 h [6],chemical stability [7]
O=C(NC1CC1)C(Sc1nc2ccccc2c(=O)n1C1CCCC1)c1ccccc1 (centres unmarked) [Compound 1],stable,~1.6 µM,256 ± 126%,ago-allosteric modulators,15 min,14 to 15 min,stable,8.92 µM,33.1 ± 4.21%,< 25 µM,chemically stable
Cc1sc2nc(SC(C)C(=O)Nc3sccc3C(N)=O)n(CC(C)C)c(=O)c2c1C (centres unmarked) [Compound 6],stable,~13.9 µM,112 ± 14%,weak or silent allosteric modulators,8 min,8 to 12 min,stable,6.47 µM,10.3 ± 3.01%,< 25 µM,chemically stable
CC(Sc1nc2ccccc2c(=O)n1C1CCCC1)c1nc2ccccc2n1C(F)F (centres unmarked) [Compound 7],stable,,139 ± 19%,weak or silent allosteric modulators,14 min,14 to 15 min,stable,10.4 µM,9.76 ± 2.46%,< 25 µM,chemically stable
